Test results published in patent US20050054629A1, “Compounds and methods of treating cell proliferative diseases” (priority 2002, published 2005).
Where two headings read alike, the source gives them in different places.

Columns and labels:
MDA-MB-231 cells = test: Migration assay (Boyden chamber, non-coated filters); type: cell-based, human; settings: for Migration: MDA-MB-231, Boyden chamber
Procedure, shortened: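 MDA-MB-231 cells were pretreated overnight with compound (1, 10, 17.5, 25 and 50 μM), then 10^5 cells placed in the upper chamber in serum-free medium with 0.1% BSA plus compound; lower chamber held 10% FBS plus compound as chemoattractant. After 6 hours at 37° C on non-coated filters, migrated underside cells were stained and counted by microscopy.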

NIH3T3 mouse fibroblasts = test: Cytotoxicity assay (MTT), 6 days; type: cell-based; settings: NIH3T3, 144 h, 6 days of treatment, read-out: Toxicity 6d (IC 50, μM) NIH3T3
Procedure, shortened: (§1)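 Cells seeded 24 h before treatment with 0, 1, 10, 17.5, 25 and 50 µM compound (1% DMSO), in triplicate. After 6 days, 0.5 mg/ml MTT for 3 h at 37 °C, formazan dissolved in DMSO, absorbance read at 550 nm. Surviving fraction and IC50 calculated.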

H460 lung carcinoma = test: Cytotoxicity assay (MTT), 6 days; type: cell-based; settings: Homo sapiens, NCI-H460, 144 h, 6 days of treatment, read-out: Toxicity 6d (IC 50, μM) H460
Procedure, shortened: as §1

MCF-7 breast carcinoma = test: Cytotoxicity assay (MTT), 6 days; type: cell-based; settings: Homo sapiens, MCF7, 144 h, 6 days of treatment, read-out: Toxicity 6d (IC 50, μM) MCF7
Procedure, shortened: as §1

MCF10-A = test: Cytotoxicity assay (MTT), 6 days; type: cell-based; settings: Homo sapiens, MCF-10A, 144 h, 6 days of treatment, read-out: Toxicity 6d (IC 50, μM) MCF10-A
Procedure, shortened: as §1

[1] = tested on: MDA-MB-231 breast carcinoma; test: Cytotoxicity assay (MTT), 6 days; type: cell-based; settings: Homo sapiens, MDA-MB-231, 144 h, 6 days of treatment, read-out: Toxicity 6d (IC 50, μM) MDA231
Procedure, shortened: as §1

NIH3T3 cells = test: Colony formation assay with constitutively activated Ras (RasV12) and Rac (RacV12); type: cell-based, mouse; parameters: key to Colony formation: −: no effect of the compound was observed; +: an effect of the compound was observed
Procedure, shortened: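 Ras and Rac signalling were measured with reporter systems. For colony formation, NIH3T3 cells were transfected with RasV12 or RacV12 plus neomycin plasmids, then grown 2-3 weeks in 400 μg/ml geneticin with compound at 1, 10, 17.5, 25 or 50 μM. Fuchsin-stained colonies of ≥50 cells were counted.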

Rac = test: Rac-dependant signaling pathway analysis (reporter system); type: cell-based; parameters: key: −: no effect of the compound was observed; +: an effect of the compound was observed
Procedure: The impact of the compounds on Ras and Rac signaling pathways was analysed with two reporter systems described by Imler (Nature 1988) and Lin (Science, 1995) respectively on one hand, and by a colony formation assay in the presence of constitutively activated Ras (RasV12) and Rac (RacV12) on the other hand. For this latter experiment, fifty percent confluent NIH3T3 cells in a 10 cm diameter petri dish were transfected with 0.5 μg pSV2-RasV12 or 0.5 μg pEXV RacV12 plasmids plus 100 ng of pSV2-neomycin plasmid using Lipofectamine-Plus reagent (Invitrogen) according to the manufacturer's instructions. Forty-eight hours later, cells were trypsinised, splitted to ⅓, and incubated in the presence of complete medium supplemented with 400 μg/ml geneticin (Invitrogen) and different doses of compound (1, 10, 17.5, 25 and 50 μM) until emerging resistant clones appear (2-3 weeks). The medium was renewed every 3 days. Colonies with a minimum of 50 cells were counted after staining with Fuschin 2%.

cell architecture = test: Cell architecture modification, phase contrast; type: cell-based; parameters: key: −: no effect of the compound was observed; +: an effect of the compound was observed
NIH3T3 = test: Cytoskeleton analysis, actin staining (FITC-phalloidin); type: cell-based, mouse; settings: for Cell architecture modification actin staining (R: ruffles; FC: focal complexes) NIH3T3: 24 h treatment; for concentration at which specific inhibition of membrane ruffles and increase in the number of stress fibers was observed: NIH3T3, actin staining
Procedure, shortened: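 Subconfluent cells on coverslips were exposed to compound at 1, 10, 17.5, 25 or 50 μM, or to vehicle, for 24 h. They were then formaldehyde-fixed, Triton-permeabilized and blocked. Actin was stained with 0.5 μg/ml FITC-phalloidin for 1 h and imaged by inverted fluorescence microscopy.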

[2] = tested on: HCT116 colon adenocarcinoma; test: Cytotoxicity assay (MTT), 6 days; type: cell-based, human; settings: 6 days of treatment, read-out: Toxicity 6d (IC 50, μM) HCT116
Procedure, shortened: as §1

SMILES | concentration at which inhibition of serum-induced migration was observed (MDA-MB-231 cells) [µM] | Migration (MDA-MB-231 cells) | IC50 (NIH3T3 mouse fibroblasts) [µM] | IC50 (H460 lung carcinoma) [µM] | IC50 (MCF-7 breast carcinoma) [µM] | IC50 (MCF10-A) [µM] | IC50 [1] [µM] | Colony formation (NIH3T3 cells) | Ras-dependent neoR clones formation (NIH3T3 cells; NIH3T3 transfected with RasVal12) | Small GTPases activities Rac (Rac) | Cell architecture modification phase contrast (cell architecture) | Cell architecture modification actin staining (R: ruffles; FC: focal complexes) NIH3T3 (NIH3T3) | concentration at which specific inhibition of membrane ruffles and increase in the number of stress fibers was observed (NIH3T3) [µM] | IC50 [2] [µM] | IC50 ([2]; Homo sapiens, HCT-116, 144 h) [µM]
CCCc1c(OCCCCCOc2coc(CO)cc2=O)ccc(Cl)c1Cl [EH22900, 5-[5-(3,4-Dichloro-2-propylphenyloxy)pentyloxy]-2-(hydroxymethyl)-4H-pyran-4-one] | 25 | inhibition | 30 | 15 | 50 | > 50 | 30 | + | inhibited | − | + | R-, FC+ | 10 | 10 | ≤ 15
C/C=C/c1oc(CO)cc(=O)c1OCCCCCOc1ccc(Cl)c(Cl)c1CCC [EH31101, (E)-3-[5-(3,4-Dichloro-2-propylphenyloxy)pentyloxy]-6-(hydroxymethyl)-2-(propen-1-yl)-4H-pyran-4-one] | 10 | no effect | > 50 | 25 | 25 | 35 | 25 | − |  | − | + | R-, FC+ | 50 |  | 30
